Laboratory results taken from the supplement of paper PMC4862054.

What was measured:
MDA-MB-468 [1] = conditions: 72 h
Summary of the method: (§1)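 Two sequential readouts followed a 72 h incubation of breast cancer cell lines with compound at 5 concentrations in 10-fold steps over a compound-specific 10,000-fold range: CellTox Green fluorescence (485/520 nm) for cell death, then CellTiter-Glo luminescence, after 10 min at room temperature, for viability. Each plate was normalised to 0.1 % DMSO and a positive kill control. Dose-response curves were fitted for EC50, censored at the top concentration.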

CAL-120 = conditions: 72 h
Summary of the method: as §1

SK-BR-3 [2] = conditions: 72 h
Summary of the method: as §1

BT-549 [3] = conditions: 72 h
Summary of the method: as §1

MDA-MB-231 [4] = conditions: 72 h
Summary of the method: as §1

MFM-223 [5] = conditions: 72 h
Summary of the method: as §1

MDA-MB-436 [6] = conditions: 72 h
Summary of the method: as §1

CAL-85-1 = assay: drug sensitivity score (DSS), CellTiter-Glo (DSS (AUC-based score)); higher = stronger drug effect (viability inhibition or cytotoxicity); extreme values may be limits of the assay; conditions: incubation time: 72 h
Summary of the method: (§2)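 The drug sensitivity score reflects the area under a fitted dose-response curve. To obtain it, breast cancer cells in 20 µl suspension were seeded into 384-well plates containing compound at 5 concentrations, 10-fold apart over a compound-specific 10,000-fold range, and incubated 72 h. CellTox Green fluorescence (485/520 nm) was read first and CellTiter-Glo luminescence second, after 10 min at room temperature. Each plate was normalised to 0.1 % DMSO and a positive kill control.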

MDA-MB-468 [7] = assay: as above; conditions: incubation time: 72 h
Summary of the method: as §2

SK-BR-3 [8] = assay: as above; conditions: incubation time: 72 h
Summary of the method: as §2

BT-549 [9] = assay: as above; conditions: incubation time: 72 h
Summary of the method: as §2

HCC1599 = assay: as above; conditions: incubation time: 72 h
Summary of the method: as §2

Hs578T [10] = assay: as above; conditions: incubation time: 72 h
Summary of the method: as §2

HDQ-P1 = assay: as above; conditions: incubation time: 72 h
Summary of the method: as §2

MDA-MB-453 = assay: as above; conditions: incubation time: 72 h
Summary of the method: as §2

CAL-51 [11] = assay: as above; conditions: incubation time: 72 h
Summary of the method: as §2

MDA-MB-231 [12] = assay: as above; conditions: incubation time: 72 h
Summary of the method: as §2

BT-474 [13] = assay: as above; conditions: incubation time: 72 h
Summary of the method: as §2

MFM-223 [14] = assay: as above; conditions: incubation time: 72 h
Summary of the method: as §2

MDA-MB-436 [15] = assay: as above; conditions: incubation time: 72 h
Summary of the method: as §2

MCF-10A [16] = assay: as above; conditions: incubation time: 72 h
Summary of the method: as §2

HCC1143 [17] = assay: as above; conditions: incubation time: 72 h
Summary of the method: as §2

DU-4475 [18] = assay: as above; conditions: incubation time: 72 h
Summary of the method: as §2

CAL-148 = assay: as above; conditions: incubation time: 72 h
Summary of the method: as §2

Hs578T [19] = conditions: 72 h
Summary of the method: as §1

CAL-51 [20] = conditions: 72 h
Summary of the method: as §1

BT-474 [21] = conditions: 72 h
Summary of the method: as §1

MCF-10A [22] = conditions: 72 h
Summary of the method: as §1

HCC1143 [23] = conditions: 72 h
Summary of the method: as §1

DU-4475 [24] = conditions: 72 h
Summary of the method: as §1

HCC1143 [25] = assay: normalised viability (% of control), CellTiter-Blue; higher = more viable cells (about 100 = DMSO control); conditions: incubation time: 72 h
Summary of the method: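 Vehicle (100) and a positive kill control (0) anchored the normalisation of each plate, and Z'-factor was used for quality control. Breast cancer cell lines in 20 µl suspension were incubated 72 h over compound in 5 µl medium in 384-well plates, followed by CellTiter-Blue at 560/590 nm. The value is normalised viability at a single listed concentration of the series.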

| SMILES | EC50, CellTiter-Glo (MDA-MB-468 [1]) [nM] | EC50, CellTiter-Glo (SK-BR-3 [2]) [nM] | EC50, CellTiter-Glo (BT-549 [3]) [nM] | EC50, CellTiter-Glo (MDA-MB-231 [4]) [nM] | EC50, CellTiter-Glo (MDA-MB-436 [6]) [nM] | EC50, CellTiter-Glo (BT-474 [21]) [nM] | EC50, CellTiter-Glo (HCC1143 [23]) [nM] | EC50, CellTiter-Glo (CAL-120) [nM] | EC50, CellTiter-Glo (MFM-223 [5]) [nM] | drug sensitivity score (CAL-85-1) | drug sensitivity score (MDA-MB-468 [7]) | drug sensitivity score (SK-BR-3 [8]) | drug sensitivity score (BT-549 [9]) | drug sensitivity score (HCC1599) | drug sensitivity score (Hs578T [10]) | drug sensitivity score (HDQ-P1) | drug sensitivity score (MDA-MB-453) | drug sensitivity score (CAL-51 [11]) | drug sensitivity score (MDA-MB-231 [12]) | drug sensitivity score (BT-474 [13]) | drug sensitivity score (MFM-223 [14]) | drug sensitivity score (MDA-MB-436 [15]) | drug sensitivity score (MCF-10A [16]) | drug sensitivity score (HCC1143 [17]) | drug sensitivity score (DU-4475 [18]) | drug sensitivity score (CAL-148) | EC50, CellTiter-Glo (Hs578T [19]) [nM] | EC50, CellTiter-Glo (CAL-51 [20]) [nM] | EC50, CellTiter-Glo (MCF-10A [22]) [nM] | EC50, CellTiter-Glo (DU-4475 [24]) [nM] | normalised viability (HCC1143 [25]; 100 nM) [%] | normalised viability (HCC1143 [25]; 1 nM) [%] | normalised viability (HCC1143 [25]; 10 nM) [%] |
| --- | --- | --- | --- | --- | --- | --- | --- | --- | --- | --- | --- | --- | --- | --- | --- | --- | --- | --- | --- | --- | --- | --- | --- | --- | --- | --- | --- | --- | --- | --- | --- | --- | --- |
| CCC/C=C/C=C/C(=O)O[C@H]1/C(=C/C(=O)OC)C[C@H]2C[C@H]([C@@H](C)O)OC(=O)C[C@H](O)C[C@@H]3C[C@H](OC(C)=O)C(C)(C)[C@](O)(C[C@@H]4C/C(=C/C(=O)OC)C[C@H](/C=C/C(C)(C)[C@]1(O)O2)O4)O3 [Bryostatin 1] |  | 0.1 | > 100 |  |  |  |  |  |  | 0 | 0 | 10.8 | 0.294 | 0 | 4.68 | 1.62 | 0 | 6.93 | 0 | 1.75 | 0 | 0 | 0 | 0 | 0 | 0 | 1.41 | 0.32 |  |  |  | 81.2 |  |
| CO[C@@H](C(=O)N1Cc2[nH]nc(NC(=O)c3ccc(N4CCN(C)CC4)cc3)c2C1)c1ccccc1 [Danusertib] | 25.2 |  | 882 | 2480 | 1090 | 912 | 8380 | 2860 | 86.5 | 0 | 18.3 | 0 | 10.7 | 0 | 3.96 | 3.68 | 0 | 9.2 | 5.32 | 5.14 | 14.3 | 4.68 | 12 | 5.41 | 5.98 | 3.57 | 4060 | 780 | 628 | 1530 | 87.4 |  |  |
| O=C1c2c(O)ccc(O)c2C(=O)c2c(NCCNCCO)ccc(NCCNCCO)c21 [Mitoxantrone] |  |  |  |  | 495 |  | 314 |  |  | 0 | 0 | 0 | 0 | 0 | 0 | 0.578 | 0 | 2.13 | 0 | 0 | 0 | 5.91 | 0 | 0.675 | 2.92 | 3.82 |  | 975 |  | 988 |  |  | 66.9 |
| CS(=O)(=O)N1CCN(Cc2cc3nc(-c4cccc5[nH]ncc45)nc(N4CCOCC4)c3s2)CC1 [Pictilisib] | 3040 | 253 | 1410 | 2960 | 6050 | 1710 | 2600 | 3150 | 1580 | 8.59 | 6.39 | 14.2 | 9.15 | 0 | 7.69 | 11.9 | 13.1 | 10.1 | 6.01 | 6.27 | 7.5 | 5.3 | 13.3 | 7.14 | 1.25 | 8.61 | 1890 | 1230 | 397 |  |  |  |  |
| O=C(NC[C@H](O)CO)c1ccncc1Nc1ccc(I)cc1F [Pimasertib] |  | > 10000 |  | 737 | 8470 | 456 |  | 356 | 1950 | 8.66 | 0 | 2.74 | 0.686 | 0 | 2.79 | 13 | 0 | 5.03 | 6.34 | 7.07 | 1.68 | 0.481 | 21.9 | 0 | 32.3 | 3.19 | 5910 | 46.2 | 12.9 | 21.8 |  |  |  |
| CC[C@@]1(O)C(=O)OCc2c1cc1n(c2=O)Cc2cc3c(CN(C)C)c(O)ccc3nc2-1 [Topotecan] | 141 | 574 | 1190 | 7050 | 378 | 9160 | 768 | 4820 |  | 11.1 | 20.8 | 14.1 | 10.8 | 18.3 | 1.55 | 0 | 5.74 | 11 | 4.13 | 3.82 | 0 | 13.6 | 4.97 | 9.67 | 14.6 | 18.7 | 5130 | 785 | 5600 | 496 |  |  | 79.7 |

More lines, main results first:

| EC50, CellTiter-Glo (MDA-MB-468 [1]) [nM] | EC50, CellTiter-Glo (SK-BR-3 [2]) [nM] | EC50, CellTiter-Glo (BT-549 [3]) [nM] | EC50, CellTiter-Glo (MDA-MB-231 [4]) [nM] | EC50, CellTiter-Glo (MDA-MB-436 [6]) [nM] | EC50, CellTiter-Glo (BT-474 [21]) [nM] | EC50, CellTiter-Glo (HCC1143 [23]) [nM] | SMILES | EC50, CellTiter-Glo (CAL-120) [nM] | EC50, CellTiter-Glo (MFM-223 [5]) [nM] | drug sensitivity score (CAL-85-1) | drug sensitivity score (MDA-MB-468 [7]) | drug sensitivity score (SK-BR-3 [8]) | drug sensitivity score (BT-549 [9]) | drug sensitivity score (HCC1599) | drug sensitivity score (Hs578T [10]) | drug sensitivity score (HDQ-P1) | drug sensitivity score (MDA-MB-453) | drug sensitivity score (CAL-51 [11]) | drug sensitivity score (MDA-MB-231 [12]) | drug sensitivity score (BT-474 [13]) | drug sensitivity score (MFM-223 [14]) | drug sensitivity score (MDA-MB-436 [15]) | drug sensitivity score (MCF-10A [16]) | drug sensitivity score (HCC1143 [17]) | drug sensitivity score (DU-4475 [18]) | drug sensitivity score (CAL-148) | EC50, CellTiter-Glo (Hs578T [19]) [nM] | EC50, CellTiter-Glo (CAL-51 [20]) [nM] | EC50, CellTiter-Glo (MCF-10A [22]) [nM] | EC50, CellTiter-Glo (DU-4475 [24]) [nM] | normalised viability (HCC1143 [25]; 100 nM) [%] | normalised viability (HCC1143 [25]; 1 nM) [%] | normalised viability (HCC1143 [25]; 10 nM) [%] |
| --- | --- | --- | --- | --- | --- | --- | --- | --- | --- | --- | --- | --- | --- | --- | --- | --- | --- | --- | --- | --- | --- | --- | --- | --- | --- | --- | --- | --- | --- | --- | --- | --- | --- |
| 3660 | 5720 | 1900 | 3300 | 7820 |  |  | CC/C(=C(\c1ccc(O)cc1)c1ccc(OCCN(C)C)cc1)c1ccccc1 [4-hydroxytamoxifen] | 3010 | 8810 | 3.01 | 4.87 | 1.4 | 2.89 | 0 | 0 | 0 | 1.86 | 0 | 2.63 | 0 | 1.9 | 1.6 | 0 | 0 | 0 | 0 |  |  |  |  |  |  |  |
| 28.4 | 933 | 406 | 125 |  | 74.7 | 121 | O=C(Nc1c[nH]nc1-c1nc2ccc(CN3CCOCC3)cc2[nH]1)NC1CC1 [AT9283] | 146 | 191 | 0 | 13.4 | 1.96 | 4.94 | 0 | 4.11 | 2.87 | 0 | 7.83 | 6.11 | 5.15 | 1.08 | 0 | 5.49 | 2.84 | 1.31 | 0 | 157 | 2.81 | 102 | 149 | 72.8 |  |  |
